According to patent US20100035904A1, “PHE[…]; METHODS OF MAKING; AND METHODS OF USE THEREOF” (priority 2008, published 2010):
Where a name gives a salt, the structure may show the parent alone.

Columns and labels:
[1] = Moisture sorption experiments; assay type: physicochemical; details: for hygroscopicity (moisture sorption analysis): 0-90% RH; for XRPD pattern of material following the moisture sorption experiment: after sorption/desorption and drying
Protocol: Moisture sorption experiments are carried out on about 10 milligrams (mg) of sample in a Pyrex bulb by first equilibrating the sample at 25° C./40% relative humidity (RH) until an equilibrium weight is reached. The sample is then subjected to an isothermal (25° C.) adsorption scan from 40 to 90% RH in steps of 10% RH. The sample is allowed to equilibrate to either an asymptotic weight or a maximum of four hours for each relative humidity. A desorption scan from 90 to 0% RH (at 25° C.) is then run in steps of −10% again allowing a maximum of four hours for equilibration or an asymptotic weight. Following desorption, an adsorption scan is performed from 0% RH to the initial 40% RH. The sample is then dried for one hour at 80° C. to obtain the dry weight.

[2] = background statement; cited from earlier work
[3] = Stability of the salt in seven day toluene slurry (XRPD); assay type: physicochemical; details: ambient temperature, seven days
Protocol: Stability of the salt is evaluated using a seven day toluene slurry. Each salt (about 10-20 mg) is slurried in 250 microliters of toluene at ambient temperature for seven days in a 4 ml vial. After seven days, each sample is filtered and dried overnight at ambient temperature under vacuum. The samples are then analyzed by XRPD.

[4] = Analysis of residual solids from water slurry (XRPD, 1H-NMR) for form conversion; assay type: physicochemical; details: water slurry overnight, ambient temperature

Compound	hygroscopicity (moisture sorption analysis) ([1]; 25° C.)	water adsorbed at 90% RH ([1]; 25° C.)	XRPD pattern of material following the moisture sorption experiment [1]	hygroscopicity / stability in humid environments [2]	XRPD of material following seven day toluene slurry [3]	stability of the salt in water slurry (conclusion) [4]	water adsorbed between 10-60% RH ([1]; 25° C., 10-60% RH)	water content at which the desorption curve stabilizes ([1]; desorption, 40-5% RH)
CCC1(c2ccccc2)C(=O)NC(=O)NC1=O [Phenobarbital free form, 5-ethyl-5-phenyl-2,4,6(1H,3H,5H)-pyrimidinetrione, reference compound]	nonhygroscopic	0.1 wt %	consistent with the initial phenobarbital starting material	–	–	–	–	–
CCC1(c2ccccc2)C(=O)NC(=O)NC1=O [Phenobarbital sodium]	–	–	–	hygroscopic and degrades when exposed to humid environments	–	–	–	–
CCC1(c2ccccc2)C(=O)[N-]C(=O)NC1=O.C[N+](C)(C)CCO [phenobarbital choline salt, phenobarbital choline]	hygroscopic	23 wt %	consistent with the initial material	–	consistent with the initial material	remained stable	–	–
CCC1(c2ccccc2)C(=O)NC(=O)NC1=O [phenobarbital potassium salt, phenobarbital potassium]	–	–	–	–	–	potential dissociation	–	–
CCC1(c2ccccc2)C(=O)NC(=O)NC1=O [phenobarbital sodium salt, phenobarbital sodium]	hygroscopic	approximately 34 wt %	shows differences in comparison to the diffraction pattern of the initial material	–	amorphous	–	approximately 2 wt %	approximately 12 wt %
phenobarbital benzathine	nonhygroscopic	1.0 wt %	consistent with the initial material	–	–	remained stable	–	–
phenobarbital betaine [phenobarbital betaine salt]	hygroscopic	28.1 wt %	consistent with the initial material	–	consistent with the initial material	salt dissociation	–	–
